Values after ≈ are worked out from the molar mass of the structure shown.
What was measured:
[1] = Storage of form A at elevated temperature; type: physicochemical
[2] = Solubility and stability of form A in water; type: physicochemical; settings: 22±2° C.
Description: 104 mg of raltegravir sodium salt form A is suspended in 1.0 ml water and the suspension placed on a laboratory shaker at 22±2° C. for 24 hours at a rate of 400 rpm. After 24 hours shaking the suspension is filtered, the obtained solid investigated by powder X-ray diffraction, and the concentration in the liquid phase is determined by UV-vis spectroscopy.

Cc1nnc(C(=O)NC(C)(C)c2nc(C(=O)NCc3ccc(F)cc3)c(O)c(=O)n2C)o1 [form A, N-(4-fluorobenzyl)-5-hydroxy-1-methyl-2-(1-methyl-1-{[(5-methyl-1,3,4-oxadiazol-2-yl)carbonyl]amino}ethyl)-6-oxo-1,6-dihydropyrimidine-4-carboxamide]
thermal stability on storage [1]: without decomposition
solubility ([2]; 22 °C, thermodynamic from solid, suspended in water, 24 hours shaking, resulting pH 10.4, UV-vis, read-out: aqueous solubility (concentration in the liquid phase)): 47 ± 5 mg/mL (≈ 106 mM)
crystalline form of the solid after suspension in water (XRPD) ([2]; suspension in water, 24 hours): form A is retained
pH of the liquid phase ([2]; suspension in water, 24 hours): 10.4
crystalline form of the solid after suspension in water (XRPD) ([2]; suspension in water, 24 hours, listed as raltegravir sodium salt form A): crystalline form A is retained
